Reference: EP2093222A1, “Polyisoprenoid epoxides useful for decreasing cholesterol and/or increasing coenzyme Q biosynthesis” (NEWBIOTECHNIC, S.A., priority 2008, dated 2009)

Legend:
[1] = tested on: HepG2 cells; assay: Biosynthesis of cholesterol and CoQ by HepG2 cells: incorporation of [3H]mevalonate, lipid extraction, HPLC with on-line detection of radioactivity; assay type: cell-based, human; settings: for Coenzyme Q10: labeling of CoQ
Method: (§1) Human hepatoblastoma (HepG2) cells (cell line derived from a human liver cancer that contains primarily CoQ with a decaprenyl side-chain available in ATCC (Cat. No. HB-8065), obtained from LGC Prochem, UK) were cultured in 10 ml DMEM medium (Invitrogen) containing 1 g glucose per 100 ml, 10% fetal bovine serum, penicillin (100 units per ml) and streptomycin ([…]). When 70% confluency was reached, the medium was changed and the compounds to be investigated added in 50-100 µl dimethylsulfoxide to give a final concentration of 2 µM or in the case of tocotrienols 5 µM. Twenty-four hours later, 0.5 mCi [^3H]mevalonate (3.25 Ci/mmol) was added and incubation continued for an additional 8 hours. When the substrate was [^3H]lanosterol (0.28 Ci/mmol) the amount added was 5 µCi. Finally, the cells were harvested by trypsinisation and stored at -20° C for later analysis.
(§2) Lipids were extracted from cells with chloroform:methanol:water (1:1:0.3), at 37°C for 1 hr with magnetic stirring (Ericsson, J., Runquist, M., Thelin, A., Andersson, M., Chojnacki, T., and Dallner, G. (1993) J Biol Chem 268(2), 832-838). The extracts thus obtained were adjusted to achieve a final chloroform:methanol:water ratio of 3:2:1 and complete phase separation then accomplished by centrifugation. The lower chloroform phase was removed and evaporated to dryness under a flow of nitrogen and the residue subsequently re-dissolved in chloroform. These solutions were placed onto a silica column (50 mg/1.5 ml; Extract-Clean, Alltech, Deerfield, IL) and thereafter eluted with 6 ml chloroform. After evaporation of the solvents, the neutral lipids were dissolved in chloroform:methanol (2:1).
(§3) For analysis of cholesterol, cholesterol metabolites, squalene, and CoQ, the samples were subjected to reversed-phase HPLC using a Supelcosil LC-18 column (3 µm, 4.0 x 75 mm) equipped with an LC-18 Supelguard (Supelco) column (Ericsson, J., Thelin, A., Chojnacki, T., and Dallner, G. (1992) J Biol Chem 267(27), 19730-19735). For separation, a stepwise gradient involving methanol:water (9:1) in pump system A and methanol:2-propanol:hexane (2:1:1) in pump system B was employed at a flow rate of 1.1 ml/min. The gradient began at 15% solvent B, with increases to 47% after 8 min, 67% after 16 min and 100% after 24 min. The lipids in the eluent were monitored at 210 nm and 275 nm with a UV detector and labeling of radioactive products was measured with on-line detector of radioactivity. Ergosterol and CoQ6 were used as internal standards.

[2] = tested on: HepG2 cells; assay: Biosynthesis of cholesterol from [3H]lanosterol in the presence of inhibitors; assay type: cell-based, human; settings: for Cholesterol: 2 µM tetraepoxysolanesol or ketoconazole or 0.2 µM RO 48-8071, 24 hrs, then [3H]lanosterol 8 hrs, means ± SE of 3 experiments; for cholesterol synthesis with [3H]lanosterol as precursor: result in words
Method: as §1, §2, §3

[3] = tested on: HepG2 cells; assay: Biosynthesis of cholesterol and CoQ by HepG2 cells: incorporation of [3H]mevalonate, lipid extraction, HPLC with on-line detection of radioactivity; assay type: cell-based; settings: Homo sapiens, [3H]mevalonate incorporation into cholesterol, read-out: inhibition (reduction) of cholesterol synthesis
[4] = 2 µM, 24 hours, then [3H]mevalonate for 8 hours, means ± SD (n = 4)
[5] = 2 µM, 24 hours, then [3H]mevalonate for 8 hours, labeling of cholesterol, means ± SD (n = 4)
[6] = 2 µM tetraepoxysolanesol or ketoconazole or 0.2 µM RO 48-8071, 24 hrs, then [3H]mevalonate 8 hrs, means ± SE
[7] = 2 µM tetraepoxysolanesol or ketoconazole or 0.2 µM RO 48-8071, 24 hrs, then [3H]mevalonate 8 hrs, means ± SE, n.d. = not detectable

Molecule: CC(C)=CCC/C(C)=C/CC/C(C)=C/CO [Farnesol]
- Coenzyme Q10 [1, 4]: 100 ± 4 % of control
- Cholesterol [1, 5]: 101 ± 3 % of control

Molecule: CC(C)=CCC/C(C)=C/CC/C(C)=C/CC/C(C)=C/CO [Geranylgeraniol]
- Coenzyme Q10 [1, 4]: 107 ± 11 % of control
- Cholesterol [1, 5]: 102 ± 5 % of control

Molecule: CC(=O)OC/C=C(\C)CC/C=C(\C)CC/C=C(\C)CCC=C(C)C [Geranylgeranyl-acetate]
- Coenzyme Q10 [1, 4]: 109 ± 12 % of control
- Cholesterol [1, 5]: 102 ± 4 % of control

Molecule: CC(=O)N1CCN(c2ccc(OCC3COC(Cn4ccnc4)(c4ccc(Cl)cc4Cl)O3)cc2)CC1 (centres unmarked) [Ketoconazole, reference compound]
- Cholesterol [2]: 1.3 ± 0.3 cpm/pg protein
- cholesterol synthesis with [3H]lanosterol as precursor [2]: inhibited
- CQ10 [1, 6]: 2.4 ± 0.3 cpm/pg protein
- Cholesterol [1, 7]: 25 ± 4 cpm/pg protein
- Lanosterol [1, 7]: 58 ± 16 cpm/pg protein

Molecule: C=CCN(C)CCCCCCOc1ccc(C(=O)c2ccc(Br)cc2)c(F)c1 [RO 48-8071, reference compound]
- Cholesterol [2]: 10.1 ± 1.2 cpm/pg protein
- cholesterol synthesis with [3H]lanosterol as precursor [2]: neither tetraepoxysolanesol or RO 48-8071 inhibited
- CQ10 [1, 6]: 2.1 ± 0.2 cpm/pg protein
- 2,3-Oxido squalene [1, 7]: 91 ± 10 cpm/pg protein
- 2,3:22,23-Dioxidosqualene [1, 7]: 108 ± 22 cpm/pg protein

Molecule: CC(C)=CCC/C(C)=C/CC/C(C)=C/CC/C=C(\C)CC/C=C(\C)CCC=C(C)C [Squalene]
- Coenzyme Q10 [1, 4]: 111 ± 8 % of control
- Cholesterol [1, 5]: 30 ± 5 % of control
- inhibition at 2 µM [3]: 70%

Molecule: Farnesyl-acetate
- Coenzyme Q10 [1, 4]: 105 ± 8 % of control
- Cholesterol [1, 5]: 103 ± 4 % of control

Molecule: Solanesol
- Coenzyme Q10 [1, 4]: 138 ± 14 % of control
- Cholesterol [1, 5]: 3 ± 1 % of control

Molecule: Solanesyl-acetate
- Coenzyme Q10 [1, 4]: 145 ± 18 % of control
- Cholesterol [1, 5]: 4 ± 2 % of control

Molecule: Vitamin K2
- Coenzyme Q10 [1, 4]: 127 ± 18 % of control
- Cholesterol [1, 5]: 67 ± 7 % of control
- inhibition (reduction) of cholesterol synthesis ([1]; 2 µM, [3H]mevalonate incorporation into cholesterol): 33%
- elevation (stimulation) of CoQ synthesis ([1]; 2 µM, [3H]mevalonate labeling of CoQ): 27%
